In experiment [1] the target is T1, PfCCT(528–795) Y626F/Q636A (Plasmodium falciparum, UniProt Q8IEE9, DEL720-737/Q636A/Y626F). Briefly: Continuous coupled colorimetric enzyme activity assay (PPase/PNP/MESG). Type of experiment: biochemical. As to conditions: CTP varied 100 μM–2 mM, ChoP fixed 5 mM; read-out: KM,CTP. The protocol:
(§1) Enzyme activity measurements were performed as described previously, using a continuous coupled colorimetric assay with pyrophosphatase (PPase), purine nucleoside phosphorylase (PNP) auxiliary enzymes and the auxiliary substrate 7-methyl-6-thioguanosine (MESG)[16],[30],[39]. For CTP substrate titrations, CTP concentration was varied between 100 μM and 2 mM while ChoP concentration was kept constant at 5 mM. For ChoP titrations, ChoP concentration was varied between 0.5 mM and 20 mM while CTP concentration was kept constant at 1 mM. Initial velocities were calculated from the first 10% of the progress curves using phosphate calibration as reference. Due to the low activity of PfCCT(581–775) and PfCCT(528–795) T761A, T762A variants, the enzyme was used at 10 μM concentration and the slope of the absorbance change was determined after monitoring the reaction for 20 minutes. For measurements with PfCCT(528–795) K663A the following reagent concentrations were used in the enzyme assay: [PPase] = 0.17 U·ml^−1, [PNP] = 1.25 U·ml^−1, [MESG] = 0.1 mM, [Mg^2+] = 5 mM and [PfCCT(528–795) K663A] = 10 μM, to yield adequate signal-to-noise ratio (S/N > 10). Three independent experiments were performed for CTP and ChoP kinetic titrations of PfCCT(528–795) K663A. Global fit of CTP and ChoP kinetic titrations for each enzyme variant was performed in Origin 8.6 using Michaelis–Menten equation, to yield a single kcat parameter.

For experiment [2], the target named is T2, PfCCT(581–775) (Plasmodium falciparum, UniProt P49587, DEL194-211).
T2 construct: The PfCCT(581–775) construct was obtained using previously described PfCCT(528–795); 6xHis (TEV-cleavable) (N, cleaved yes); made in house; host or cells: E. coli BL21 (DE3)
The experiment is described as above. Format: biochemical. As to conditions: CTP varied 100 μM–2 mM, ChoP fixed 5 mM. The protocol:
as §1

Experiment [3] deals with PfCCT(528–795) T761A. The experiment is described as above. Type of experiment: biochemical, Plasmodium falciparum. Conditions: CTP varied 100 μM–2 mM, ChoP fixed 5 mM; read-out: KM,CTP. The protocol: as §1
Experiment [4] has as its system PfCCT(528–795) T762A. The experiment is described as above. Type of experiment: biochemical, Plasmodium falciparum. Conditions: CTP varied 100 μM–2 mM, ChoP fixed 5 mM; read-out: KM,CTP. Here is the method:
as §1

Experiment [5] concerns the target T3, PfCCT(528–795) (Plasmodium falciparum, UniProt P49587, DEL194-211).
T3 construct: previously described PfCCT(528–795) lacking the lysine-rich Plasmodium specific loop (720–737); His-tag; made in house
Briefly: Equilibrium ligand binding by isothermal titration calorimetry (ITC). Conditions: 20 °C. Here is the method: (§2) Calorimetric measurements were performed on an ITC 200 titration calorimeter (Malvern) at 20 °C. The protein samples were dialyzed against 20 mM HEPES/NaOH pH 7.5, 100 mM NaCl, including 0.5 mM Tris(2-carboxyethyl)phosphine (TCEP) as reducing agent. CTP and CDPCho were diluted from a concentrated stock into the dialysis buffer with subsequent pH adjustment. Concentration of the titrating nucleotide ligands were determined using molar extinction coefficients 9000 M^−1 cm^−1 at 271 nm for CTP and 5000 M^−1 cm^−1 at 260 nm for CDPCho[16]. In the experimental setup, the cell of the instrument was filled with protein and the syringe with the ligand. The titrations typically included 19 steps of injection with 2 μl of ligand per injection spaced 180 s apart from each other, with the injection syringe rotating at 750 r.p.m. The data were analyzed using MICROCAL ORIGIN software following the directions of the manufacturer. To account for dilution, the invariant integrated heat value of the last 3–5 data points was subtracted from all data points. The one set of independent sites binding model was applied to data for determination of thermodynamic parameters: dissociation constant (Kd), stoichiometry (N), enthalpy (ΔH) and entropy (ΔS). Due to the low apparent affinity, the N value was fixed to a constant value of 1 in CTP titrations to PfCCT(528–795) K663A according to the low c value ITC data analysis protocol[40],[41]. For CTP and CDPCho titrations of PfCCT(528–795) K663A, and CTP titrations of T761A and T762A variants of PfCCT(528-795), mean and SD from two independent experiments are provided, whereas for CDPCho titrations of PfCCT(581–775) and PfCCT(528-795) mean and SD from three independent experiments are provided. For PfCCT(528-795) (Y626F/Q636A), errors of model fit to data of a single ligand binding experiment are given.

Experiment [6] has as its target PfCCT(528–795) K663A (Plasmodium falciparum, UniProt Q8IEE9, DEL720-737/K663A). The experiment is described as above. As to conditions: 20 °C. The protocol: as §2
Experiment [7] addresses T1, PfCCT(528–795) Y626F/Q636A. Described as above. Conditions: 20 °C, pH 7.5, single experiment, errors of model fit. The protocol:
as §2

For experiment [8], the target named is PfCCT(528–795) T761A. The description is as above. Also noted: species or system Plasmodium falciparum. Conditions: 20 °C, pH 7.5, read-out: Kd,CTP. Here is the method:
as §2, with “Due to the low apparent affinity, the N value was fixed to a constant value of 1 in CTP titrations to PfCCT(528–795) K663A according to the low c value ITC data analysis protocol[40],[41]. For CTP and CDPCho titrations of PfCCT(528–795) K663A, and CTP titrations of T761A and T762A variants of PfCCT(528-795), mean and SD from two independent experiments are provided, whereas for CDPCho titrations of PfCCT(581–775) and PfCCT(528-795) mean and SD from three independent experiments are provided. For PfCCT(528-795) (Y626F/Q636A), errors of model fit to data of a single ligand binding experiment are given.” left out

Experiment [9] deals with PfCCT(528–795) T762A. Described as above. Also noted: species or system Plasmodium falciparum. Conditions: 20 °C, pH 7.5, read-out: Kd,CTP. Here is the method: as §2, with “Due to the low apparent affinity, the N value was fixed to a constant value of 1 in CTP titrations to PfCCT(528–795) K663A according to the low c value ITC data analysis protocol[40],[41]. For CTP and CDPCho titrations of PfCCT(528–795) K663A, and CTP titrations of T761A and T762A variants of PfCCT(528-795), mean and SD from two independent experiments are provided, whereas for CDPCho titrations of PfCCT(581–775) and PfCCT(528-795) mean and SD from three independent experiments are provided. For PfCCT(528-795) (Y626F/Q636A), errors of model fit to data of a single ligand binding experiment are given.” left out

For experiment [10], the target named is T3, PfCCT(528–795). Also noted: method as in Nagy et al.[16]. Conditions: ref Nagy et al.[16]; read-out: KM,CTP; cited from earlier work.

Each structure is given as a SMILES string.

T1 sequence (Q8IEE9 528-795, stated change not applied): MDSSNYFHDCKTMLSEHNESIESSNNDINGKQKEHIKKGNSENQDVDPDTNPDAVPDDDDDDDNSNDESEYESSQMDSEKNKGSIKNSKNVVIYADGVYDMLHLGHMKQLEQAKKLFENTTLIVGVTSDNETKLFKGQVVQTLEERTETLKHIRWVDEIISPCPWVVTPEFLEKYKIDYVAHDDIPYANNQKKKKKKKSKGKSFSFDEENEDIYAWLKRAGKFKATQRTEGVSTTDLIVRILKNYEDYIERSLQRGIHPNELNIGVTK
Sequence of PfCCT(528–795) K663A (Q8IEE9 528-795, stated change not applied): as above

In general, Km refers to the substrate concentration at which the rate is half of its maximum. The term Kd denotes the free concentration of one partner at which half of the binding sites on the other are occupied at equilibrium, for simple one-to-one binding. Take `Nc1ccn([C@@H]2O[C@H](COP(=O)(O)OP(=O)(O)OP(=O)(O)O)[C@@H](O)[C@H]2O)c(=O)n1` [CTP]: the Km in [1] was 170 ± 10 µM; in [2] it was 1100 µM; in experiment [3], 1270 µM; in [4] it was 610 ± 70 µM; in experiment [10], 170 ± 20 µM. Besides, the ΔGCTP was -5.7 ± 0.1 kcal/mol in experiment [5] (pH 7.5); -4.4 ± 0.1 kcal/mol in [6] (pH 7.5, N fixed to 1); -5.7 ± 0.1 kcal/mol in experiment [7]. For the same compound, the ΔHCTP was -8.6 ± 0.3 kcal/mol in experiment [5] (pH 7.5) and -10.8 ± 0.1 kcal/mol in experiment [7]. The “−TΔSCTP” value in experiment [5] (pH 7.5) was 3.0 ± 0.4 kcal/mol; in experiment [6] (pH 7.5, N fixed to 1), -10.5 ± 0.6 kcal/mol; in experiment [7], 5.1 ± 0.2 kcal/mol. The Kd in experiment [5] (pH 7.5, read-out: Kd,CTP) was found to be 60 ± 2 µM; in [6] (pH 7.5, N fixed to 1 (low c value protocol), read-out: Kd,CTP) it was 520 ± 50 µM; in experiment [7] (read-out: Kd,CTP), 60 ± 2 µM; in experiment [8] it was 170 ± 35 µM; in experiment [9], 170 ± 12 µM.

The values above are taken from PMC6060094, “Structural determinants of the catalytic mechanism of Plasmodium CCT, a key enzyme of malaria lipid biosynthesis” (Scientific Reports, 2018).
